How the values were obtained:
Gαi protein [1] = assay: TR-FRET (HTRF) binding test of GTP analog-donor / anti-Gαi antibody DSV36S-d2, CHO-K1 Delta Opioid membranes
Description: (§1) • membrane preparations of cells expressing GPCRs and the G-alpha-i protein (Gαi) were purchased from Perkin Elmer or Euroscreen. The table below lists the cell backgrounds and references of the different samples used:
(§2) • the DSV36 antibody was generated by Cisbio Bioassays and is available rom Cisbio Bioassays on request (under the reference DSV36S). The antibody was labeled with the fluorescent probe d2 (red acceptor) compatible for TR-FRET detection. The DSV36S antibody binds at the switch II of the Gαi protein. • the GTP and GTPγS nucleotides were purchased from Sigma Aldrich (respective catalog references G8877 and G8634). • the 384-well, low volume, white plates with a white background were purchased from Greiner Bio One (catalog reference 784075). • the non-hydrolyzable/slowly hydrolyzable GTP analogs labeled with donor fluorophores of lanthanide complex type were synthesized at Cisbio Bioassays. Methods Preparation of the Reagents
Except for other specific mention, all the reagents were diluted in 50 mM Tris HCl pH 7.4, 10 mM MgCl2, 0.1% BSA, 10 mM NaCl, buffer. The membranes were prepared 4× to distribute 1 or 10 μg/well (amount specified in the key of each figure). The GTPγS nucleotide (non-specific signal condition) was prepared 6.67× to obtain a final concentration in the wells of 100 μM. The anti-Gαi antibody DSV36S-d2 used for the detection was prepared 4× to target the final concentration in the wells of 10 nM. The non-hydrolyzable/slowly hydrolyzable GTP analogs labeled with fluorescent donor probes (lanthanide complexes) were prepared 4× to target the final concentrations in the wells mentioned in the keys of each figure.
• Membranes expressing GPCR and the G protein: 5 μl • GTPγS buffer or nucleotide (for the non-specific signal condition): 3 μl • Non-hydrolyzable/slowly hydrolyzable GTP analog-donor: 5 μl • Anti-Gαi antibody-acceptor (DSV36S-d2): 5 μl • Buffer: 2 μl
(§3) The non-specific signal (background fluorescence noise) was measured with wells containing an excess of GTPγS (10 or 100 μM).
(§4) The plates were incubated at 21° C. for 20 h and then the HTRF signal was measured on the PHERAstar reader (BMG Labtech) with the following configuration: • Module: HTRF (Excitation 337 nm, Emission 665 nm and 620 nm) • Excitation: laser, 40 flashes or lamp, 100 flashes • Reading window: delays: 60 μs-Integration: […] Signal Processing
From the raw signals at 665 nm and 620 nm, the HTRF Ratio was calculated according to the following formula: HTRF Ratio=[(Signal at 665 nm)/(Signal at 620 nm)]×10 000 Test Format
FIG. 2 illustrates the test format used to detect the binding of the compounds of formula (I) to the G protein. […] When the two FRET partners (test compound and anti-Gα protein antibody) bind to the same Gα protein, a FRET signal appears (left part of the figure: “Total Signal”) and is distinguished from the non-specific signal (background noise corresponding to the right part of the figure: “Non-Specific Signal”), which comprises a large excess of unlabeled GTPγS (displacement of the fluorescent GTP analog). […]
GTPgN-octyl-C2 was used at a final concentration of 6 nM in the wells. The membranes were incubated in the absence or in the presence of a large excess of GTPγS (100 μM). […]
GTPgN-octyl-C2 was used at a final concentration of 2 or 6 nM in the wells. The membranes were incubated in the absence or in the presence of a large excess of GTPγS (100 μM).

Gαi protein [2] = assay: TR-FRET (HTRF) binding test of GTP analog-donor / anti-Gαi antibody DSV36S-d2, CHO-K1 Dopamine D2S membranes; conditions: CHO-K1 membranes expressing Dopamine D2S GPCR and Gαi, 10 μg per well; analog 6 nM; absence vs presence of GTPγS 100 μM
Description: as §1
• the DSV36 antibody was generated by Cisbio Bioassays and is available rom Cisbio Bioassays on request (under the reference DSV36S). The antibody was labeled with the fluorescent probe d2 (red acceptor) compatible for TR-FRET detection. […]
as §3, §4
(§5) From the raw signals at 665 nm and 620 nm, the HTRF Ratio was calculated according to the following formula: HTRF Ratio=[(Signal at 665 nm)/(Signal at 620 nm)]×10 000 Test Format […]

Gαi protein [3] = assay: TR-FRET (HTRF) binding test of GTP analog-donor / anti-Gαi antibody DSV36S-d2, HEK293 Delta Opioid membranes; conditions: HEK293 membranes expressing Delta Opioid GPCR and Gαi, 1 μg per well; analog 1 nM; absence vs presence of GTPγS 100 μM
Description: as §1, §2
Except for other specific mention, all the reagents were diluted in 50 mM Tris HCl pH 7.4, 10 mM MgCl2, 0.1% BSA, 10 mM NaCl, buffer. The membranes were prepared 4× to distribute 1 or 10 μg/well (amount specified in the key of each figure). The GTPγS nucleotide (non-specific signal condition) was prepared 6.67× to obtain a final concentration in the wells of 100 μM. The anti-Gαi antibody DSV36S-d2 used for the detection was prepared 4× to target the final concentration in the wells of 10 nM. […]
as §3, §4, §5

[4] = CHO-K1 membranes expressing Delta Opioid GPCR and Gαi, 10 μg per well, analog 6 nM, absence vs presence of GTPγS 100 μM

| Molecule | HTRF Ratio total signal/non-specific signal (Gαi protein [1]; [4]) | HTRF Ratio total signal/non-specific signal (Gαi protein [3]) | also measured |
| --- | --- | --- | --- |
| GTP-gamma-N-octyl-C2 [GTPgN-octyl-C2] | 12.4 | – | signal amplitude (S/N), effect of amount of membrane (Gαi protein [1]; CHO-K1 Delta Opioid membranes increased from 1 to 10 μg per well, FIG. 11A): increase in the signal amplitude (S/N) is observed; amplitude of the signal (S/N), effect of analog concentration (Gαi protein [1]; CHO-K1 Delta Opioid membranes, GTPgN-octyl-C2 increased from 2 to 6 nM, FIG. 11B): increase in the amplitude of the signal (S/N) is observed; HTRF Ratio total signal/non-specific signal (Gαi protein [2]): 3.8 |
| GTP-gamma-O-hexyl-C2 [GTPgO-hexyl-C2] | 7.1 | – | – |
| Nc1nc2c(ncn2[C@@H]2O[C@H](COP(=O)(O)OP(=O)(O)OP(=O)(O)NCCCCCCCCNc3nc(Cl)nc(Nc4ccc(-c5cc(-c6cccc(CN(CC(=O)O)CC(=O)O)n6)nc(-c6cccc(CN(CC(=O)O)CC(=O)O)n6)c5)cc4)n3)C(O)[C@@H]2O)c(=O)[nH]1 (some centres unmarked) [GTPgN-octyl-C3, GTP-gamma-N-octyl-C3] | – | 1.4 | – |
| GTP-gamma-N—C2 [GTPgN—C2] | 16.6 | – | – |
| Nc1nc2c(ncn2[C@@H]2O[C@H](COP(=O)(O)OP(=O)(O)OP(=O)(O)Nc3ccc(-c4cc(-c5cccc(CN(CC(=O)O)CC(=O)O)n5)nc(-c5cccc(CN(CC(=O)O)CC(=O)O)n5)c4)cc3)C(O)[C@@H]2O)c(=O)[nH]1 (some centres unmarked) [GTPgN—C3, GTP-gamma-N—C3] | – | 1.7 | – |
| GTP-gamma-O-hexyl-C3 [GTPgO-hexyl-C3] | – | 1.3 | – |
| GTP-gamma-N-octyl-C11 [GTPgN-octyl-C11] | 7.6 | – | – |
| GTP-gamma-N-octyl-thiosuccinimidyl-C2 [GTPgN-octyl-thiosuccinimidyl-C2] | – | – | HTRF Ratio total signal/non-specific signal (Gαi protein [1]; CHO-K1 Delta Opioid membranes 10 μg per well, analog 7.5 nM, buffer 60 mM MgCl2, 150 mM NaCl, presence vs absence of membrane preparation): 2.8 |
